Patent US6531477B1, “6-substituted pyrazolo [3,4-d] pyrimidin-4-ones useful as cyclin dependent kinase inhibitors” (DuPont Pharmaceuticals Company, priority 1998, dated 2003)

| Structure (SMILES) | melting point |
| --- | --- |
| COc1cccc(Cc2nc3c(c(SC)nn3-c3c(F)cccc3Cl)c(=O)[nH]2)c1 [Example 182] | 244 to 245 °C |
| COc1ccc(Cc2nc3c(c(SC)nn3-c3c(Cl)cc(Br)cc3Cl)c(=O)[nH]2)cc1 [Example 183] | 267 to 268 °C |
| CCc1nn(-c2c(C)cccc2Cl)c2nc(Cc3ccc(O)cc3)[nH]c(=O)c12 [Example 184] | 255 to 256 °C |
| COc1ccc(Cc2nc3c(c(SC)nn3-c3c(C)cc(Cl)cc3Cl)c(=O)[nH]2)cc1 [Example 185] | 252 to 255 °C |
| COc1ccc(Cc2nc3c(c(SC)nn3-c3c(C)cccc3Cl)c(=O)[nH]2)cc1 [Example 186] | 233 to 235 °C |
| CCc1nn(-c2c(C)cc(Cl)cc2Cl)c2nc(Cc3ccc(OC)cc3)[nH]c(=O)c12 [Example 187] | 245 to 246 °C |
| CSc1nn(-c2c(C)cc(Cl)cc2Cl)c2nc(Cc3ccc(O)cc3)[nH]c(=O)c12 [Example 188] | 277 to 279 °C |
| CSc1nn(-c2c(C)cccc2Cl)c2nc(Cc3ccc(O)cc3)[nH]c(=O)c12 [Example 190] | 264 to 266 °C |
| CCc1nn(-c2c(C)cccc2Cl)c2nc(Cc3ccc(OC)cc3)[nH]c(=O)c12 [Example 191] | 220 to 221 °C |
| CCc1nn(-c2c(C)cccc2Cl)c2nc(Cc3ccc(O)cc3)[nH]c(=O)c12 [Example 192] | 257 to 259 °C |
| CCc1nn(-c2c(C)cccc2Cl)c2nc(Cc3cccc(OC)c3)[nH]c(=O)c12 [Example 193] | 188 to 190 °C |
| CCc1nn(-c2c(Cl)cc(C(=O)O)cc2Cl)c2nc(Cc3ccc(OC)cc3)[nH]c(=O)c12 [Example 195] | 292 to 294 °C |
| CCc1nn(-c2c(Cl)cc(C(=O)O)cc2Cl)c2nc(Cc3ccc(O)cc3)[nH]c(=O)c12 [Example 196] | 308 to 310 °C |
| CCc1nn(-c2c(Cl)cc(C(=O)O)cc2Cl)c2nc(Cc3cccc(O)c3)[nH]c(=O)c12 [Example 198] | 280 to 282 °C |
| Cc1cccc(Cl)c1-n1nc(C(C)C)c2c(=O)[nH]c(Cc3ccc(N)cc3)nc21 [Example 199] | 205 to 206 °C |
| CCc1nn(-c2c(Cl)cc(C(=O)NC)cc2Cl)c2nc(Cc3ccc(OC)cc3)[nH]c(=O)c12 [Example 201] | 278 to 280 °C |
| CCc1nn(-c2c(Cl)cc(C(=O)O)cc2Cl)c2nc(Cc3ccc(N)cc3)[nH]c(=O)c12 [Example 205] | 226 to 228 °C |
| COc1cccc(Cc2nc3c(c(CO)nn3-c3c(Cl)cc(Cl)cc3Cl)c(=O)[nH]2)c1 [Example 208] | 227 to 229 °C |
| Cc1cc(Cl)cc(Cl)c1-n1nc(C(C)C)c2c(=O)[nH]c(Cc3ccc(N)cc3)nc21 [Example 217] | 212 to 213 °C |
| COc1cccc(Cc2nc3c(c(C(C)C)nn3-c3c(Cl)cc(S(N)(=O)=O)cc3Cl)c(=O)[nH]2)c1 [Example 225] | 244 to 245 °C |
| CCc1nn(-c2cc(C(F)(F)F)ccc2Cl)c2nc(Cc3cccc(O)c3)[nH]c(=O)c12 [Example 227] | 227 to 229 °C |
| CCNC(=O)c1cc(Cl)c(-n2nc(CC)c3c(=O)[nH]c(Cc4cccc(OC)c4)nc32)c(Cl)c1 [Example 236] | 226 to 228 °C |
| CCc1nn(-c2c(Cl)cc(C(=O)NC(C)(C)C)cc2Cl)c2nc(Cc3cccc(OC)c3)[nH]c(=O)c12 [Example 238] | 222 to 224 °C |
